pIC50: −log10 of the molar value. A value given as a limit tells only on which side of the number the result lay.

The test system of assay [1] is LL1-BT-474-J4 (J4) breast cell clone. The assay is described as follows: CellTiter-Glo cell growth inhibition assay, LL1-BT-474-J4. The note with it: for pIC50: 72 h; for sensitivity of the cell line to the agent (in words): LL1-BT-474-J4. In kind it is cell-based. For orientation: ATP-based viability assays read luminescence as a measure of living cells.
Assay [2] concerns MDA-MB-453 breast tumor cell line. Description: CellTiter-Glo cell growth inhibition assay, MDA-MB-453. In kind it is cell-based. Particulars: Homo sapiens, 72 h, luminal, HER2+, 3 days. The method, then: (§1) Breast tumor cell lines, BT-474, SK-Br-3, MDA-MB-453, MDA-MB-231 and T47D and head and neck squamous cell carcinoma line, SCC15 were purchased from the American Type Culture Collection.
(§2) BT-474, SK-Br-3, JimT-1, MDA-MB-453, MDA-MB-231 and T47D and SCC15 were cultured in a humidified incubator at 37° C. in 95% air, 5% CO2 in the RPMI 1640 containing 10% fetal bovine serum (FBS) media.
(§3) Cell growth inhibition was determined via CellTiter-Glo cell viability assays. Cells were seeded in a 96-well tissue culture plate (NUNC 136102) with the following plating densities in their respective media at 1000 or 2000 cells/well dependent on cell growth rate. […] The cells were incubated in the presence of the compounds for 3 days. ATP levels were determined by adding Cell Titer Glo® (Promega), incubating for 20 minutes then a luminescent signal was read on the SpectraMax M5 plate with a 0.5 sec integration time. Cell growth was calculated relative to vehicle (DMSO) treated control wells. […] When the CI value was between 0.9 and 1.10, the combination of the two agents was deemed additive. Combination Index values less than 0.9 were considered indicative of synergy. Combination Index values>1.10 indicated antagonism.

Assay [3] has as its system T47D breast tumor cell line. Description: CellTiter-Glo cell growth inhibition assay, T47D. The format is cell-based. The note with it: Homo sapiens, 72 h, luminal, HER normal, 3 days. The method, then: as §1, §2, §3
The subject of assay [4] is SK-BR-3 breast tumor cell line. Description: CellTiter-Glo cell growth inhibition assay, SK-BR-3. The format is cell-based. The note with it: Homo sapiens, 72 h, luminal, HER2+, 3 days. As to the method:
as §1, §2, §3

In assay [5] the test system is MDA-MB-231 breast tumor cell line. Description: CellTiter-Glo cell growth inhibition assay, MDA-MB-231. In kind it is cell-based. The note with it: Homo sapiens, 72 h, post EMT, HER normal, 3 days. As to the method: as §1, §2, §3
The subject of assay [6] is JIMT-1 breast tumor cell line. Description: CellTiter-Glo cell growth inhibition assay, JIMT-1. Particulars: for pIC50: Homo sapiens, JIMT-1, 72 h, JIMT1, breast, basal, HER2+, 3 days. In kind it is cell-based. As to the method:
as §1, §2, §3

Assay [7] has as its system BT-474 breast tumor cell line. Description: CellTiter-Glo cell growth inhibition assay, BT-474. In kind it is cell-based. The note with it: for pIC50: Homo sapiens, BT-474, 72 h, BT474, breast, luminal, HER2+, 3 days. The method, then:
as §1, §2, §3

Assay [8] deals with SCC15 head and neck squamous cell carcinoma line. The assay is described as follows: cells. The note with it: Homo sapiens, SCC-15, 72 h, read-out: IC50 (cell growth inhibition). The method, then:
as §1, §2, §3

Assay [9] relates to HN5C2 head and neck tumor cell line. Description: CellTiter-Glo cell growth inhibition assay, HN5C2. In kind it is cell-based.
A further assay deals with EGFR and erbB2 kinases. The note with it: Rusnak et al., 2001b, Xia et al., 2002; cited from earlier work.

The term pIC50 denotes the negative decadic logarithm of the IC50, by convention in mol/L. As for `Cc1nc(Nc2ncc(C(=O)Nc3c(C)cccc3Cl)s2)cc(N2CCN(CCO)CC2)n1` [Dasatinib, N-(2-chloro-6-methylphenyl)-2-[[6-[4-(2-hydroxyethyl)-1-piperazinyl]-2-methyl-4-pyrimidinyl]amino]-5-thiazolecarboxamide,monohydrate], the pIC50 is less than 5.00 in [1]; less than 5.00 in assay [2]; 5.05 in assay [3]; 5.18 in assay [4]; 6.64 in [5]; 6.40 in assay [6]. Further, the pIC50 in assay [7] was 4.99; in assay [8], 7.22.
Consider `CS(=O)(=O)CCNCc1ccc(-c2ccc3ncnc(Nc4ccc(OCc5cccc(F)c5)c(Cl)c4)c3c2)o1` [Lapatinib, N-{3-chloro-4-[(3-fluorobenzyl)oxy]phenyl}-6-[5-({[2-(methanesulphonyl)ethyl]amino}methyl)-2-furyl]-4-quinazolinamine], for which the pIC50 in assay [1] is 4.96; in assay [2], 5.32; in assay [9] (72 h), 5.01; in assay [3], less than 5.00; in assay [4], 6.66; in assay [5], less than 5.00. Further, the figures for the pIC50 in assay [6] and in assay [7] were 4.83 and 7.05, respectively. The “sensitivity of the cell line to the agent (in words)” value was “resistant” in assay [1], “resistant” in assay [9] (HN5C2), “resistant” in assay [6] (JIMT-1) and “highly sensitive” in assay [7] (BT-474). Further, the “kinase inhibition in human xenograft studies” value with EGFR and erbB2 kinases was “dose-dependent kinase inhibition”.
As for `COc1cc2ncnc(Nc3ccc(F)c(Cl)c3)c2cc1OCCCN1CCOCC1` [gefitinb], the “sensitivity of the cell line to the agent (in words)” value in assay [1] is reported as “resistant”.
Still for that read-out and setting: under `CC(=O)O[C@H]1C(=O)[C@@]2(C)[C@H]([C@H](OC(=O)c3ccccc3)[C@]3(O)C[C@H](OC(=O)[C@H](O)[C@@H](NC(=O)c4ccccc4)c4ccccc4)C(C)=C1C3(C)C)[C@]1(OC(C)=O)CO[C@@H]1C[C@@H]2O` [taxol] stands “retains sensitivity”.
